Common to all, as to assay type: functional, cell-based
In data set [1] the target is T1, Multidrug resistance-associated protein 1 (Homo sapiens, UniProt P33527). The data set is described as follows: TP_TRANSPORTER: increase in Vinblastine intracellular accumulation (Vinblastine: 0.05 uM, Phenylhexyl isothiocyanate: 100 uM) in PANC-1 cells. Particulars: panc-1, 100 µM.
In data set [2] the target is T2, ATP-dependent translocase ABCB1 (Homo sapiens, UniProt P08183). The data set can be described thus: TP_TRANSPORTER: increase in Vinblastine intracellular accumulation ([…], Phenylhexyl isothiocyanate: 100 uM) in MCF-7/ADR cells. Particulars: nci/adr-res.
T2 sequence (P08183 whole entry): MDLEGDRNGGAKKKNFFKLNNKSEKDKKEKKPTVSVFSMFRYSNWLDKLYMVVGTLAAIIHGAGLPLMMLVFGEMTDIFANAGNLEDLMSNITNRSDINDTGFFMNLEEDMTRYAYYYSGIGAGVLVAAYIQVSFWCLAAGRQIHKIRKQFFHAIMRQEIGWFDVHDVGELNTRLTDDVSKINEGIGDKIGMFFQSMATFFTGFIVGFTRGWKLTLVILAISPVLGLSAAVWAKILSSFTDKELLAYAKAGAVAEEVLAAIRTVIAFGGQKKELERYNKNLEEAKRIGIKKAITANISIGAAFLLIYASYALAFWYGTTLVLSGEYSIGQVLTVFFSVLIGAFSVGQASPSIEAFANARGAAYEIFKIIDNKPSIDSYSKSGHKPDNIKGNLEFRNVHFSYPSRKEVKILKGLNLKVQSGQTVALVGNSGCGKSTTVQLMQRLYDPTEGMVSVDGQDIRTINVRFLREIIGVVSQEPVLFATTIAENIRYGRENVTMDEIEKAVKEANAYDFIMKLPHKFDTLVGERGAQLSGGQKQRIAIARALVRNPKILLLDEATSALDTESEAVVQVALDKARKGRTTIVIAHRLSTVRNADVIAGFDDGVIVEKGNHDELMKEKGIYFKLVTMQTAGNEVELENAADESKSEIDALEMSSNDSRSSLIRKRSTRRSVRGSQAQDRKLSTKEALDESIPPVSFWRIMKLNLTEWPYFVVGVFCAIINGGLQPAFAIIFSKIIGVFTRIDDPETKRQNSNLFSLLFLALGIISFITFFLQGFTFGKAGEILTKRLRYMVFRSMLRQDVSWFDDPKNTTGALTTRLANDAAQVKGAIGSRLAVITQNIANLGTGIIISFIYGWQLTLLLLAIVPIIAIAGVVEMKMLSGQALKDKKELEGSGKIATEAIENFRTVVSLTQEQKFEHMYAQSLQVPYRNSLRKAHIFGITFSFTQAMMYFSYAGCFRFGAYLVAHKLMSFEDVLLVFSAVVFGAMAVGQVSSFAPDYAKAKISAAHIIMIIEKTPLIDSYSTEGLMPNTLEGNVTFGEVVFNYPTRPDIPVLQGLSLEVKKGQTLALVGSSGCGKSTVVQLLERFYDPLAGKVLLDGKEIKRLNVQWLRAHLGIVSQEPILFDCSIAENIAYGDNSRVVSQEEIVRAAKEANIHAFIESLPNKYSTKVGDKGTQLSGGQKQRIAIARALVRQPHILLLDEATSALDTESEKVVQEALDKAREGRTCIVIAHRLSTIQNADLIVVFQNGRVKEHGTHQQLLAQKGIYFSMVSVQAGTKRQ
In data set [3] the target is T2, ATP-dependent translocase ABCB1. The data set is described as follows: TP_TRANSPORTER: increase in Daunomycin intracellular accumulation (Daunomycin: 0.05 uM, Benzylisothiocyanate: 100 uM) in MCF-7/ADR cells. Particulars: nci/adr-res.
Data set [4] has as its target T1, Multidrug resistance-associated protein 1. The data set is described as follows: TP_TRANSPORTER: increase in Daunomycin intracellular accumulation (Daunomycin: 0.05 uM, Phenylhexyl isothiocyanate: 100 uM) in PANC-1 cells. Conditions: panc-1, 100 µM.
The target is the same in data set [5]. The data set can be described thus: TP_TRANSPORTER: increase in Vinblastine intracellular accumulation (Vinblastine: 0.05 uM, Phenylbutyl isothiocyanate: 100 uM) in PANC-1 cells. Particulars: panc-1, 100 µM.
In data set [6] the target is T2, ATP-dependent translocase ABCB1. The data set can be described thus: TP_TRANSPORTER: increase in Daunomycin intracellular accumulation (Daunomycin: 0.05 uM, NITC: 100 uM) in MCF-7 ADR cells. Particulars: nci/adr-res.
Data set [7] addresses T1, Multidrug resistance-associated protein 1. The data set can be described thus: TP_TRANSPORTER: increase in Daunomycin intracellular accumulation (Daunomycin: 0.05 uM, NITC: 100 uM) in PANC-1 cells. Particulars: panc-1, 100 µM.

From ChEMBL document CHEMBL2074445, “Effect of organic isothiocyanates on the P-glycoprotein- and MRP1-mediated transport of daunomycin and vinblastine” (Pharm Res, 2002) come the findings set out here.

T1 sequence (P33527 whole entry): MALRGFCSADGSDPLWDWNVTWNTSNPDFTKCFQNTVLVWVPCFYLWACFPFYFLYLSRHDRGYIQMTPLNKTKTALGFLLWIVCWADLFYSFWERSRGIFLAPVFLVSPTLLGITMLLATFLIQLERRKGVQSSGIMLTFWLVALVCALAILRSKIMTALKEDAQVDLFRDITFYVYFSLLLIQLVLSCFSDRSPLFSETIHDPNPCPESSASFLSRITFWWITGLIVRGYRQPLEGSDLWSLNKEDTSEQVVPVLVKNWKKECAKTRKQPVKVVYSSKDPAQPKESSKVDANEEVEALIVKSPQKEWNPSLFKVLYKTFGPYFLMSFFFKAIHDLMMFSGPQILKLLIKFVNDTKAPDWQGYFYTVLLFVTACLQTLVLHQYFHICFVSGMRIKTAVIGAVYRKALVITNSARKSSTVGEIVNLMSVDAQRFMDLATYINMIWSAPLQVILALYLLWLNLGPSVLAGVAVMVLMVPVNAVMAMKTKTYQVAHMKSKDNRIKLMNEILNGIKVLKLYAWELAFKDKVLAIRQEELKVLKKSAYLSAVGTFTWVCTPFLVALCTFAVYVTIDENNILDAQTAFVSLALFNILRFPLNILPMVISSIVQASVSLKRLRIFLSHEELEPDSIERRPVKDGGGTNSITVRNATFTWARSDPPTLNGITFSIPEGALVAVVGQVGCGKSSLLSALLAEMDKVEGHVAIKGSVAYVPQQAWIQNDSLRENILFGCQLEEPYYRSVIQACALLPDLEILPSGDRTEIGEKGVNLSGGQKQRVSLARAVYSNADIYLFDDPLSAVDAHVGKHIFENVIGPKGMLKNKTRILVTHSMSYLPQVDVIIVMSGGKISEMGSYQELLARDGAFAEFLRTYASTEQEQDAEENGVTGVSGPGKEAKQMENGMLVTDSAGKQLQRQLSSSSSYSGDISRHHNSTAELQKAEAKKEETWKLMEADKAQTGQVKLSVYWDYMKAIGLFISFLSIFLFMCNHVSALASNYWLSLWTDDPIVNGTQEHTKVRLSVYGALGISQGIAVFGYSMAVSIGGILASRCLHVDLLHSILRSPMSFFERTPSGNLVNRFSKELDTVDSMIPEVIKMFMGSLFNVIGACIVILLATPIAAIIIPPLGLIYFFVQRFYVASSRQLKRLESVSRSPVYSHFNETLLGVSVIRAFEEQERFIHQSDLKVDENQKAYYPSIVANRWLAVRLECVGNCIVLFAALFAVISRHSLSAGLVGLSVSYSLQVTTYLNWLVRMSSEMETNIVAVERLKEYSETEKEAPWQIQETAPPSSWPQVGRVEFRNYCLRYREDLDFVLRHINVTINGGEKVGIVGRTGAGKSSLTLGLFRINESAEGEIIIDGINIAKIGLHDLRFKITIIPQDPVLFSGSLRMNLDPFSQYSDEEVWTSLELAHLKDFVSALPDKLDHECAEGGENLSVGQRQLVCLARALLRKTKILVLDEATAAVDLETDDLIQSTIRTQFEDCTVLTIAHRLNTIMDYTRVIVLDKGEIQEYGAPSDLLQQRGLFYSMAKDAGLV

On to `S=C=NCCCCCCc1ccccc1` [PHENYLHEXYL ISOTHIOCYANATE], for which the values for the Activity in data set [1] and in data set [2] were 3 fold and 10 fold, respectively. On to `S=C=NCc1ccccc1` [BENZYL ISOTHIOCYANATE], for which the Activity in data set [3] turned out to be 2.5 fold.

`S=C=NCCc1ccccc1` [PHENETHYLISOTHIOCYANATE]: the Activity in data set [4] turned out to be 2 fold. As to `S=C=NCCCCc1ccccc1` [PHENYLBUTYL ISOTHIOCYANATE], the Activity in data set [5] is 2.5 fold. Take `S=C=Nc1cccc2ccccc12` [1-NAPHTHYLISOTHIOCYANATE]: the values for the Activity in data set [6] and in data set [7] were 4 fold and 3 fold, respectively.
